Drawing on paper PMC8057513, “Comparison of edible brown algae extracts for the inhibition of intestinal carbohydrate digestive enzymes involved in glucose release from the diet” (Journal of Nutritional Science, 2021), this text covers IC50, Ki and Km for two compounds.

Holding throughout (type): biochemical
Assay [1] concerns the target T1, maltase (rat intestinal α-glucosidase).
T1 construct: gene Mgam; crude phosphate-buffer supernatant of rat intestinal acetone powder (Sigma-Aldrich, labelled EC 3.2.1.48), not purified; maltose-hydrolysing activity of mixed brush-border alpha-glucosidases
The assay can be described thus: maltose hydrolysis, released glucose by HPAEC-PAD. To be noted: 10 mM maltose, phosphate buffer 100 mM pH 6.9, 37 °C, 30 min; crude intestinal extract. The text has this: maltose hydrolysis, released glucose by HPAEC-PAD on maltase (rat intestinal α-glucosidase)

Assay [2] has the same target. The assay is described as follows: maltose hydrolysis, released glucose by HPAEC-PAD; Dixon plot. As to conditions: maltose 1.25-5 mM, pH 6.9, 37 °C; competitive; crude intestinal extract. The source says:
maltose hydrolysis, released glucose by HPAEC-PAD; Dixon plot on maltase (rat intestinal α-glucosidase)

The test system of assay [3] is T1, maltase (rat intestinal α-glucosidase). The assay can be described thus: maltose hydrolysis, released glucose by HPAEC-PAD; Lineweaver-Burk plot. To be noted: phosphate buffer 100 mM pH 6.9, 37 °C; crude intestinal extract.

The structures appear in SMILES notation. Values after ≈ are worked out from the molar mass of the structure shown.

For the compound `C[C@H]1O[C@H](O[C@H]2[C@H](O)[C@@H](O)[C@@H](O[C@H]3[C@H](O)[C@@H](O)C(O)O[C@@H]3CO)O[C@@H]2CO)[C@H](O)[C@@H](O)[C@@H]1N[C@H]1C=C(CO)[C@@H](O)[C@H](O)[C@H]1O` (stereo partly drawn) [Acarbose], the IC50 (usually the concentration needed to halve the response being measured) in assay [1] amounted to 0.15 ± 0.02 µg/mL (≈ 0.232 µM). Moreover, the Ki (as a rule, the equilibrium dissociation constant of an inhibitor or competing ligand from its target) in assay [2] was found to be 0.07 µg/mL (≈ 0.108 µM).

`OC[C@H]1O[C@H](O[C@H]2[C@H](O)[C@@H](O)C(O)O[C@@H]2CO)[C@H](O)[C@@H](O)[C@@H]1O` (stereo partly drawn) [maltose]: the Km (as a rule, the substrate concentration at which the rate is half of its maximum) in assay [3] came to 5.8 mM.
